Source: patent US20250051277A1, “DELIVERY OF THERAPEUTIC ALKALOID COMPOUNDS” (Sensorium Therapeutics, Inc., priority 2021, published 2025)
Like-named read-outs stand apart in the source and are kept apart here.

Assays:
[1] = format: physicochemical; details: DI water, 25° C., 0.5 mM
[2] = format: physicochemical; details: SGF with pepsin, pH 1.5, 37° C., 0.5 mM

Structure (SMILES) | Condition 2 Conversion (%) ([1]; time 1 min) | Condition 2 Conversion (%) ([1]; time 5 min) | Condition 2 Conversion (%) ([1]; time 30 min) | Condition 2 Conversion (%) ([1]; time 1 h) | Condition 2 Conversion (%) ([1]; time 4 h) | Condition 2 Conversion (%) ([1]; time 24 h) | Condition 1 Conversion (%) ([2]; time 1 min) | Condition 1 Conversion (%) ([2]; time 5 min) | Condition 1 Conversion (%) ([2]; time 30 min) | Condition 1 Conversion (%) ([2]; time 1 h) | Condition 1 Conversion (%) ([2]; time 4 h) | Condition 1 Conversion (%) ([2]; time 24 h)
COc1ccc([C@@]23CCC(=NNC(=O)C(=O)O)C[C@@H]2N(C)CC3)cc1OC [Compound 241, 2-[2-[(3aS,7aS)-3a-(3,4-dimethoxyphenyl)-1-methyl-2,3,4,5,7,7a-hexahydroindol-6-ylidene]hydrazino]-2-oxo-acetic acid] | 0 | 28 | 30 | 52 | 86 | 100 | 100 | 100 | 100 | 100 | 100 | 100
COc1ccc([C@@]23CCC(=NNC(=O)CC(CC(=O)O)CC(C)C)C[C@@H]2N(C)CC3)cc1OC (stereo partly drawn) [Compound 242, 3-[2-[2-[(3aS,7aS)-3a-(3,4-dimethoxyphenyl)-1-methyl-2,3,4,5,7,7a-hexahydroindol-6-ylidene]hydrazino]-2-oxo-ethyl]-5-methyl-hexanoic acid] | 33.46 | 36.51 | 38.53 | 40.8 | 55.46 | 55.7 | 75.01 | 95.02 | 96.13 | 97.72 | 98.02 | 98.34
COc1ccc([C@@]23CC/C(=N\NC(=O)C4(C(=O)O)CC4)C[C@@H]2N(C)CC3)cc1OC [Compound 243, 1-[[[(3aS,7aS)-3a-(3,4-dimethoxyphenyl)-1-methyl-2,3,4,5,7,7a-hexahydroindol-6-ylidene]amino]carbamoyl]cyclopropanecarboxylic acid] | 0 | 0 | 0 | 0 | 27.04 | 46.78 | 80.17 | 100 | 100 | 100 | 100 | 100
COc1ccc([C@@]23CC/C(=N\NC(=O)c4ccccc4C(=O)O)C[C@@H]2N(C)CC3)cc1OC [Compound 244, 2-[[[(3aS,7aS)-3a-(3,4-dimethoxyphenyl)-1-methyl-2,3,4,5,7,7a-hexahydroindol-6-ylidene]amino]carbamoyl]benzoic acid] | 0 | 0 | 4.08 | 15.25 | 24.59 | 66.56 | 33.93 | 100 | 100 | 100 | 100 | 100
COc1ccc([C@@]23CC/C(=N\NC(=O)CCC(=O)O)C[C@@H]2N(C)CC3)cc1OC [Compound 245, 4-[2-[(3aS,7aS)-3a-(3,4-dimethoxyphenyl)-1-methyl-2,3,4,5,7,7a-hexahydroindol-6-ylidene]hydrazino]-4-oxo-butanoic acid] | 25 | 35 | 50 | 100 | 100 | 100 | 60 | 100 | 100 | 100 | 100 | 100
COc1ccc([C@@]23CC/C(=N\NC(=O)Nc4ccccc4Cl)C[C@@H]2N(C)CC3)cc1OC [Compound 249, 1-[(E)-[(3aS,7aS)-3a-(3,4-dimethoxyphenyl)-1-methyl-2,3,4,5,7,7a-hexahydroindol-6-ylidene]amino]-3-(2-chlorophenyl)urea] | 0 | 0 | 0 | 0 | 9.23 | 24.65 | 0 | 70.48 | 96.4 | 96.5 | 96.72 | 96.8
COc1ccc([C@@]23CCC(=NNC(=O)Nc4cccc(O)c4)C[C@@H]2N(C)CC3)cc1OC [Compound 251, 2-[(3aS,7aS)-3a-(3,4-dimethoxyphenyl)-1-methyloctahydro-6H-indol-6-ylidene)-N-(3-hydroxyphenyl)hydrazine-1-carboxamide] | 0 | 0 | 0 | 0 | 0 | 15.18 | 6.91 | 100 | 100 | 100 | 100 | 100
COc1ccc(NC(=O)NN=C2CC[C@@]3(c4ccc(OC)c(OC)c4)CCN(C)[C@H]3C2)cc1 [Compound 254, 1-[[(3aS,7aS)-3a-(3,4-dimethoxyphenyl)-1-methyl-2,3,4,5,7,7a-hexahydroindol-6-ylidene]amino]-3-(4-methoxyphenyl)urea] | 0 | 0 | 0 | 1.1 | 16.2 | 17.6 | 0 | 2.4 | 84.7 | 91.9 | 91.9 | 92
COc1ccc([C@@]23CCC(=NNC(=O)Nc4ccc(S(C)(=O)=O)cc4)C[C@@H]2N(C)CC3)cc1OC [Compound 255, 1-[[(3aS,7aS)-3a-(3,4-dimethoxyphenyl)-1-methyl-2,3,4,5,7,7a-hexahydroindol-6-ylidene]amino]-3-(4-methylsulfonylphenyl)urea] | 0 | 0 | 0 | 2.4 | 8.4 | 6 | 20.9 | 65.2 | 88.6 | 89.8 | 88.1 | 88
COc1ccc([C@@]23CC/C(=N\NC(=O)NCCc4cccs4)C[C@@H]2N(C)CC3)cc1OC [Compound 256, 1-[[(3aS,7aS)-3a-(3,4-dimethoxyphenyl)-1-methyl-2,3,4,5,7,7a-hexahydroindol-6-ylidene]amino]-3-[2-(2-thienyl)ethyl]urea] | 0 | 0 | 0 | 0 | 43 | 0 | 0 | 0 | 100 | 100 | 23 | 100
